Tests used:
MCF-7 cells = experiment: 59Fe mobilization from cells prelabeled with 59Fe-transferrin; format: cell-based, human; details: MCF-7 prelabeled with 59Fe-transferrin, compounds 25 μmol·L^−1, 3 h/37°C
Protocol: Iron chelation efficiency of the compounds at a concentration of 10 μmol·L^−1 was determined via 3 methods: (1) the calcein assay; (2) the ability of the ligands to induce ^59Fe mobilization from cells prelabeled with ^59Fe-transferrin; and (3) the efficacy of these agents to inhibit the uptake of ^59Fe from ^59Fe-transferrin [22, 38–40].
The fluorimetric calcein-AM assay was performed by established methods, as described previously. The Fe chelation efficiency of the metabolites in cells was expressed as a percentage of that of the parent chelator, Dp44mT or DpC (100%). For studies assessing the ability of these agents to induce ^59Fe mobilization and inhibit ^59Fe uptake from ^59Fe-transferrin by cells, human transferrin (Sigma-Aldrich, Germany) was labeled with ^59Fe (PerkinElmer, MA, USA) to generate ^59Fe-transferrin at a final specific activity of 500 pCi/pmol Fe, as previously described. The unbound ^59Fe was removed by exhaustive vacuum dialysis against a large excess of 0.15 M NaCl buffered to pH 7.4 with 1.4% NaHCO3 by standard methods.
To examine the ability of the studied substances to mobilize ^59Fe from MCF-7 cells or inhibit ^59Fe uptake from ^59Fe-transferrin, established techniques were utilized. For ^59Fe mobilization studies, cells were preincubated with ^59Fe-transferrin (0.75 μmol·L^−1) for 3 h/37°C, washed 4 times at 4°C on ice, and then reincubated with control medium or control medium containing the compounds (25 μmol·L^−1) for 3 h/37°C. The release of ^59Fe from the cells into the overlying medium was then examined by collecting both the cells and overlying medium and assessing ^59Fe levels using a γ-counter. For studies examining the ability of the agents to inhibit ^59Fe uptake from ^59Fe-transferrin, cells were incubated for 3 h/37°C with ^59Fe-transferrin (0.75 μmol·L^−1) in the presence or absence of the agents (25 μmol·L^−1), and then washed 4 times at 4°C on ice. The internalization of ^59Fe by cells was then assessed by incubation for 30 min/4°C with the general protease, Pronase (1 mg/mL), utilizing standard techniques. The amount of internalized ^59Fe in the presence of the agents was expressed as a percentage of ^59Fe internalized by control cells incubated in the presence of control media alone.

[1] = test system: HCT116 human colorectal carcinoma cell line; experiment: MTT proliferation/viability assay, HCT116; format: cell-based; details: HCT-116, 72 h/37°C, mean ± S.D.
Protocol: (§1) The MCF-7 human breast adenocarcinoma cell line was purchased from the European Collection of Cell Cultures (U.K.). The HL-60 human promyelocytic leukemia cell line, HCT116 human colorectal carcinoma cell line, H9c2 rat heart-derived myoblast cell line and 3T3 mouse embryo fibroblast line, were obtained from the American Type Culture Collection (VA, U.S.A.). Cells were cultured in Dulbecco's modified Eagle's medium (DMEM, Lonza, Switzerland) with or without (for MCF-7 cells only) phenol red, supplemented with 10% heat-inactivated fetal bovine serum (FBS; Lonza, Switzerland), 1% penicillin/streptomycin solution (Lonza, Switzerland) and 10 mM HEPES buffer (pH 7.0-7.6; Sigma-Aldrich, Germany). The HL-60 cell line was maintained in RPMI medium (Sigma-Aldrich, Germany) supplemented with 10% heat-inactivated FBS and 1% penicillin/streptomycin solution. All cell lines were cultured in 75 cm^2 tissue culture flasks (Switzerland) at 37°C in a humidified atmosphere of 5% CO2. Sub-confluent cells or, in the case of HL-60 cells, a cell suspension, were sub-cultured every 3-4 days.
(§2) Cells were seeded in 96-well plates for 24 h/37°C at a density of 5,000 (MCF-7), 10,000 (HL-60), 2,000 (HCT116) and 10,000 (3T3 and H9c2) cells/well. For 3T3 and H9c2 cells, the medium was changed to serum- and pyruvate-free DMEM 24 h prior to the experiments. Anti-proliferative and cytotoxicity effects of the compounds were studied at different concentrations after incubations for 72 h/37°C. Viabilities of cells were determined using MTT assays (Sigma-Aldrich, Germany) according to the manufacturer's instructions on a Tecan Infinite 200M plate reader (Tecan, Austria). The proliferation/viability of treated groups was expressed as a percentage of the untreated controls (100%).

[2] = Post-preparative stability in the autosampler at 10°C; format: physicochemical; details: for decomposition on storage (in words): 24 h storage in the autosampler at 10°C; for Post-preparative stability: autosampler 10°C, 24 h
Protocol: The UHPLC-MS/MS methods for quantitative assays were validated with respect to selectivity, linearity, precision, accuracy, stability, recovery, matrix effects and dilution integrity (see […]
Supplementary Table 1-3). […]
Stability was assessed at low, medium and high concentration levels. Long -term stability was assessed for plasma samples at -80°C over a period of 7 days (three aliquots per level; Supplementary Table 3). […]

[3] = test system: MCF-7 human breast adenocarcinoma cell line; experiment: MTT proliferation/viability assay, MCF-7; format: cell-based; details: MCF7, 72 h/37°C, mean ± S.D.
Protocol: as §1, §2

[4] = high concentration level (2.105-3.115 µmol·L-1)
[5] = low concentration level (0.035-0.156 µmol·L-1)
[6] = medium concentration level (0.702-1.558 µmol·L-1)

| Compound | 59Fe mobilization, % of cellular 59Fe (MCF-7 cells) | IC50 [1] | decomposition on storage (in words) [2] | Post-preparative stability [2, 4] | Post-preparative stability [2, 5] | Post-preparative stability [2, 6] | IC50 [3] |
| --- | --- | --- | --- | --- | --- | --- | --- |
| CN(C)C(=S)NN=C(c1ccccn1)c1ccccn1 [Dp44mT, di(2-pyridyl)ketone 4,4-dimethyl-3-thiosemicarbazone] | 51% | 6 ± 1 nM | No significant decomposition | 98.90% | 93.70% | 95.92% | 9 ± 2 nM |
| CN(C(=S)NN=C(c1ccccn1)c1ccccn1)C1CCCCC1 [DpC, di(2-pyridyl)ketone 4-cyclohexyl-4-methyl-3-thiosemicarbazone] | 44% | 5 ± 1 nM | No significant decomposition | 107.34% | 97.48% | 95.68% | 3 ± 1 nM |

From article PMC4767442 (Oncotarget, 2015)
